Our source for the IC50, Ki and EC50 values is ChEMBL document CHEMBL2177102, “Modulation of DNA repair by pharmacological inhibitors of the PIKK protein kinase family” (Bioorg Med Chem Lett, 2012).

“And” between values parts separate entries of the source, which are not always exact repeats. Equal entries are not always repeated.

The target in experiment [1] is DNA-dependent protein kinase catalytic subunit (Mus musculus, UniProt P97313). The experiment is described as follows: Inhibition of DNA-PK in C57BL6 mouse endothelial cells. Type of experiment: cell-based, Endothelial cell.
The target in experiment [2] is T1, DNA-dependent protein kinase catalytic subunit (Homo sapiens, UniProt P78527). The experiment is described as follows: Inhibition of DNA-PK assessed as inhibition of p53 peptide phosphorylation.
The target in experiment [3] is T1, DNA-dependent protein kinase catalytic subunit. The experiment is described as follows: Competitive inhibition of DNA-PK.
For experiment [4] the target is unchanged. The experiment is described as follows: Inhibition of DNA-PK.
Experiment [5] addresses Serine-protein kinase ATM (Homo sapiens, UniProt Q13315). The experiment is described as follows: Irreversible inhibition of ATM.
For experiment [6], the target named is Heat shock protein HSP 90-beta (Homo sapiens, UniProt P08238). The experiment is described as follows: Inhibition of Hsp90.
Experiment [7] is described as follows: Inhibition of PI3K.
Experiment [8] addresses Serine/threonine-protein kinase ATR (Homo sapiens, UniProt Q13535). The experiment is described as follows: Inhibition of flag-tagged ATR expressed in HEK293T cells using PHAS-1 as substrate after 20 mins by autoradiography. More on the design: species or system HEK-293T.
The target of experiment [9] is T1, DNA-dependent protein kinase catalytic subunit. The experiment is described as follows: Inhibition of DNA-PK in human U1810 cells after 30 mins. The class given is cell-based.

T1 sequence (P78527 whole entry): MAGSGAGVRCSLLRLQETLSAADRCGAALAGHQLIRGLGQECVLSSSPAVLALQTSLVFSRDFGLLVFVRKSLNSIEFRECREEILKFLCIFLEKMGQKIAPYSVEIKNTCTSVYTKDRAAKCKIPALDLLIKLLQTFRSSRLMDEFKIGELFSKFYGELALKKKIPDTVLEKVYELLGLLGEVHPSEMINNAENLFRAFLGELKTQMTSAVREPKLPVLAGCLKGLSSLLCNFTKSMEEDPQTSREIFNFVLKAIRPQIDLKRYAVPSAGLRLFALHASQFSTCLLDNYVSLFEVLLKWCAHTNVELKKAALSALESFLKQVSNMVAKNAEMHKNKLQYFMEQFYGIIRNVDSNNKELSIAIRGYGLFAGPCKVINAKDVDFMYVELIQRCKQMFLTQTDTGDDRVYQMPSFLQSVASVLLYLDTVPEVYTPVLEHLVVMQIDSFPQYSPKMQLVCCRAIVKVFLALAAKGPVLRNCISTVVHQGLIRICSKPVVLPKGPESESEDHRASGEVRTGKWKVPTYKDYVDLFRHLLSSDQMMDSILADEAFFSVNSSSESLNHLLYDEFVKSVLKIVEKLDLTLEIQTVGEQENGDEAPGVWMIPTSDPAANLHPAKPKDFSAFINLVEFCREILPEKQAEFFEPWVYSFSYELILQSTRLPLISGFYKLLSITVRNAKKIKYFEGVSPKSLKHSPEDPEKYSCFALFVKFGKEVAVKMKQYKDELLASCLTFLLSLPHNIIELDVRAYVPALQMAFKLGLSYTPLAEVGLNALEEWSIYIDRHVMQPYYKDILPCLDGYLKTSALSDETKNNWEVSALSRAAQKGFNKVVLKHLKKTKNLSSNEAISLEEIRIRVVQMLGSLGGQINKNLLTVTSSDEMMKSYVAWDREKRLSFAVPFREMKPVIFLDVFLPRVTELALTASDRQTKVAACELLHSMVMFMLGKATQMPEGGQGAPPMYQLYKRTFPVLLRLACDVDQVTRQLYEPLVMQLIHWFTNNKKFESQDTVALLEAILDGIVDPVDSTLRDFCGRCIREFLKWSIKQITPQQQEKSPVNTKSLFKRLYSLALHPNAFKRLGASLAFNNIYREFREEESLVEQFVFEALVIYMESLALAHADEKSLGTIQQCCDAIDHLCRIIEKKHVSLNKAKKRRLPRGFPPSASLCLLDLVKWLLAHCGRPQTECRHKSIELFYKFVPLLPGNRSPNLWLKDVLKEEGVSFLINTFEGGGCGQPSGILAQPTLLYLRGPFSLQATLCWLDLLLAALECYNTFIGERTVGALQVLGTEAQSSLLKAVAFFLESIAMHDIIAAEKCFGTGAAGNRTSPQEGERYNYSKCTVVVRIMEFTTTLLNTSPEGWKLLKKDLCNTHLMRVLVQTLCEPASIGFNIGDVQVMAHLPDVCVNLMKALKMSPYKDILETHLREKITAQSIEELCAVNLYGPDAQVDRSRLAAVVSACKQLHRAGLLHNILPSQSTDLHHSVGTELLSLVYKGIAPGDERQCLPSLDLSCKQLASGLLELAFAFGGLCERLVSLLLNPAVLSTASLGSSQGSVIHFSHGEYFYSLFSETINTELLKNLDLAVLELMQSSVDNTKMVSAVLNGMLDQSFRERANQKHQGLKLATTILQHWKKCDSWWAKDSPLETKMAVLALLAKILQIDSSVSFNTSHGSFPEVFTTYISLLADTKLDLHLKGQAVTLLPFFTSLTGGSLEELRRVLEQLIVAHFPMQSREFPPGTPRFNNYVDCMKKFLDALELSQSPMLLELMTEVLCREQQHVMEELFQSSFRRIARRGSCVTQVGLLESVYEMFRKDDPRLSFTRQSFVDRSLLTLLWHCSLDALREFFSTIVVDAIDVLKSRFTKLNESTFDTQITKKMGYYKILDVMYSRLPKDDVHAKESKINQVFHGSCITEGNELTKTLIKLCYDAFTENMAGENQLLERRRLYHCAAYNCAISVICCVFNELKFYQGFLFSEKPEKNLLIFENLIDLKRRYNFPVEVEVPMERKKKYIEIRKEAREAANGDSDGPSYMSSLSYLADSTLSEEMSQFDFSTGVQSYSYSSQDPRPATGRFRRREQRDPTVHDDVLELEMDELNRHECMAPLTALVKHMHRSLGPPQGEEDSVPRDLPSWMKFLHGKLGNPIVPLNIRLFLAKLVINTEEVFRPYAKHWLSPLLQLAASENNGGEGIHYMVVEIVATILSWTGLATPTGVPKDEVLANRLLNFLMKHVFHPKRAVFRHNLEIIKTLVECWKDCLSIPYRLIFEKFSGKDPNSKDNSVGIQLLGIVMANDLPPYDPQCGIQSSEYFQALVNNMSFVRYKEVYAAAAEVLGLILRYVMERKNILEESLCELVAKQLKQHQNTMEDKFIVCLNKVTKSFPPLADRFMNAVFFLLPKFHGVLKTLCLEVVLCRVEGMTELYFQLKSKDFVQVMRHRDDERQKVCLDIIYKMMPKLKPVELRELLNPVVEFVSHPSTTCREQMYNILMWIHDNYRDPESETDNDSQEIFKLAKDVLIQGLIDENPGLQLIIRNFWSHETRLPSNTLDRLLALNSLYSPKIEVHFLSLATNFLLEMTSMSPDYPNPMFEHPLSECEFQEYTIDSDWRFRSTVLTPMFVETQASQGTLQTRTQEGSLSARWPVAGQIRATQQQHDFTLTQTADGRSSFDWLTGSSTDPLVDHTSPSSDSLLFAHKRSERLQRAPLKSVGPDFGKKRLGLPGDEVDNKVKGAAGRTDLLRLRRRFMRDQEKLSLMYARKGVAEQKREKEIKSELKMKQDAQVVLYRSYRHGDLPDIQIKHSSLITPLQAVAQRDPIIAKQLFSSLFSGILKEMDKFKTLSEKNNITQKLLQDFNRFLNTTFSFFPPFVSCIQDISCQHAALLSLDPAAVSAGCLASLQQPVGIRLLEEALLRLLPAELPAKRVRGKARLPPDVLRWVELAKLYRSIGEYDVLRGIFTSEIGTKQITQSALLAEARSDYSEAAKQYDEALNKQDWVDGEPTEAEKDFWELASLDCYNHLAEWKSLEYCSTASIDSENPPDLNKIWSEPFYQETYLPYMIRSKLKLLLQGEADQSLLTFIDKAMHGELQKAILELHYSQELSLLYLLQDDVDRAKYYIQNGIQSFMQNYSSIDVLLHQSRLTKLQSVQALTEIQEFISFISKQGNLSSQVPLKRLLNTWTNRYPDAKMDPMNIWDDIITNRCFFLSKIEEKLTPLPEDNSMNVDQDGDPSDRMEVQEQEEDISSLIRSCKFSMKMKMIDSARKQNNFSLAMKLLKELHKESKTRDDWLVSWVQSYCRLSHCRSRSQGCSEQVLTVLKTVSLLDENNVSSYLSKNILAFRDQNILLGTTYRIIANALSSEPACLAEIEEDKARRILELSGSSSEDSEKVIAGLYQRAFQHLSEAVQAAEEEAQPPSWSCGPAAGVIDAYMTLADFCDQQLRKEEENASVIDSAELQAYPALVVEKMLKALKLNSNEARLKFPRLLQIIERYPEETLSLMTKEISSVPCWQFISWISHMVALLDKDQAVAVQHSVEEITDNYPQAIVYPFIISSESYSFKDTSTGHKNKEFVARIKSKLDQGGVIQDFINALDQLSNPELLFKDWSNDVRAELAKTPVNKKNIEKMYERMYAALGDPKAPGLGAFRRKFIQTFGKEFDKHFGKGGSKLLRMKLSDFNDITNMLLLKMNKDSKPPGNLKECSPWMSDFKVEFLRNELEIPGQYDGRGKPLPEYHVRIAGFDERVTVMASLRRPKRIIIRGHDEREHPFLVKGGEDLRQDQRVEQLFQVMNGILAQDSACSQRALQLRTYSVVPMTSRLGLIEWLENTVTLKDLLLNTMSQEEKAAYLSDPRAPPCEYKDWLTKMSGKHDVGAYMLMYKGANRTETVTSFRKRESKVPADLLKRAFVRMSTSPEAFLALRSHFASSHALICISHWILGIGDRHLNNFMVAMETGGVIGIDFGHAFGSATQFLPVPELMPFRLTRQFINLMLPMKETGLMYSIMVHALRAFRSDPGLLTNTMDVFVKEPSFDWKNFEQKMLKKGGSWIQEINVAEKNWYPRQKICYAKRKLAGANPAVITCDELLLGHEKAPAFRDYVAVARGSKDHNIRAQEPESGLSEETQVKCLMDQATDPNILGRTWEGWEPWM
Chain of Heat shock protein HSP 90-beta (P08238 whole entry): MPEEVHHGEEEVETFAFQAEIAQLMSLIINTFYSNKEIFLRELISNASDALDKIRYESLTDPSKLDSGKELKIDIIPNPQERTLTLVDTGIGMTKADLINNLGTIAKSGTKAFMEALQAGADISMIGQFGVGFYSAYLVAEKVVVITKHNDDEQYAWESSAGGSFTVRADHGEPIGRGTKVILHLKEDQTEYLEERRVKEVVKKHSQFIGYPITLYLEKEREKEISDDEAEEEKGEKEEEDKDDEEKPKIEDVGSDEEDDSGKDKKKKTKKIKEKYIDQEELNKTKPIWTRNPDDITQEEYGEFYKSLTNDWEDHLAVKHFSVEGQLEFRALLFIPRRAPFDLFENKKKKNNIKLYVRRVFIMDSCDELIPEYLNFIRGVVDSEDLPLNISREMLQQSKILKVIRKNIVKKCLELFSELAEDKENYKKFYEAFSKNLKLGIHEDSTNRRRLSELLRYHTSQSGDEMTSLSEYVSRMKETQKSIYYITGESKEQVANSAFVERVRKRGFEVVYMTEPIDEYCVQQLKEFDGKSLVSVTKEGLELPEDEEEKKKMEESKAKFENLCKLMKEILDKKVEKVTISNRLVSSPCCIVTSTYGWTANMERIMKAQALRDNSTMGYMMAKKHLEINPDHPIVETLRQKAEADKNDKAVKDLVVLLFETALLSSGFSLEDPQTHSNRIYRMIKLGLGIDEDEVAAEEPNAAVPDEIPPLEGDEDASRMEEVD

The IC50 is the concentration that inhibits the measured activity by half. `CC(=O)c1ccc(N2CCOCC2)cc1O` showed an IC50 in experiment [1] of 0.12 µM. With `COc1cc(C=O)c([N+](=O)[O-])cc1OC`, the IC50 in experiment [2] worked out at 15 µM.

Turning to `Nc1ncc(-c2ccccc2)nc1C(=O)Nc1ccccc1`, the IC50 in experiment [3] is 0.62 µM. For the compound `CS(=O)(=O)c1ccc(-c2cnc(N)c(C(=O)Nc3ccccc3)n2)cc1`, in experiment [4], the IC50 was 0.026 µM. As usually defined, the Ki is a measure of affinity in units of concentration, obtained from inhibition or displacement. On to `CC(CN(C)C)S(=O)(=O)c1ccc(-c2cnc(N)c(C(=O)Nc3ccccc3)n2)cc1` (stereo not drawn), for which affinity in [4] was put at a Ki of 0.006 µM. That is a single-digit nanomolar value.

With `CCc1[nH]c(/C=C2\C(=O)Nc3ccc(S(=O)(=O)Nc4ccccc4)cc32)c(CC)c1CCC(=O)O`, the IC50 in experiment [3] stood at 0.13 µM. On to `COc1cc(Br)c(C=O)cc1OC`, for which the IC50 in experiment [2] is 30 µM. `O=c1cc(-c2ccccc2)oc2c(-c3ccccc3)c(N3CCOCC3)cc(O)c12` gave an IC50 in experiment [1] of 0.034 µM.

Consider `Cc1ccc2c(sc3ccccc32)c1-c1cccc2c(=O)cc(N3CCOCC3)oc12`, for which, in experiment [4], the IC50 is 1.2 µM and 2.5 µM.

In turn, `C=C1C(=O)OC[C@@H]1C(=O)N1Cc2cc3ccccc3nc2C1` returned an IC50 in experiment [5] of 0.6 µM. Still for that read-out and setting: to `C=C1C(=O)OCC1(C(=O)OCC)C(=O)OCC` belongs 0.25 µM. For `N#Cc1cc(-c2ccncc2)c(/C=N/N)nc1O`, the IC50 in experiment [3] turned out to be 8 µM. The EC50 is the concentration giving half of the maximal effect. Read a low EC50 as greater potency. For `CO[C@@H]1/C=C/C=C(\C)C(=O)NC2=CC(=O)C(NCCCCCCOc3ccc4c(=O)cc(N5CCOCC5)oc4c3)=C(C[C@@H](C)C[C@@H](OC)[C@@H](O)[C@H](C)/C=C(\C)[C@H]1OC(N)=O)C2=O` (stereo in doubt), the EC50 in [6] was determined as 4 µM. The results for the IC50 in [7] and in experiment [4] were above 500 µM and 6.1 µM, respectively. In turn, `COc1cc2c(c(OC)c1OC)-c1c(cc3c(c1OC)OCO3)CC(C)C(C)C2` (stereo not drawn) [SCHISANDRIN B] showed an IC50 in [8] of 7.3 µM. Regarding `CN1CCN(CCCN2c3ccccc3Sc3ccc(C(F)(F)F)cc32)CC1` [TRIFLUOPERAZINE], inhibition in experiment [9] was half-maximal at 100 µM (IC50).

Take `COc1cc(C=O)ccc1O` [VANILLIN]: the IC50 in experiment [2] was 1500 µM.
